Ki and Kd data for 19 molecules are collected here from ChEMBL document CHEMBL1770056, “2-Arylimidazo[2,1-b]benzothiazoles: a new family of amyloid binding agents with potential for PET and SPECT imaging of Alzheimer's brain” (Bioorg Med Chem Lett, 2011).

A short description of test [1]: Displacement of [3H]BTA-1 from amyloid beta 1 to 40 by competitive binding assay. On the technique in general: Loss of bound radioactivity is the signal in a displacement assay; it reports binding, not function.
Test [2] is described as follows: Binding affinity to amyloid beta 1 to 40.

For orientation: Ki means the dissociation constant of the complex between target and ligand, obtained from inhibition or displacement. The low end stands for tighter binding, the high end for weaker binding. Molecule `COc1ccc2c(c1)sc1nc(-c3ccc(N(C)C)cc3)cn12` had a Ki in test [1] of 58.6 nM. In other words, the double-digit nanomolar range.

With `COc1ccc2c(c1)sc1nc(-c3ccc(N)cc3)cn12`, in test [1], the Ki is 29.8 nM. This Ki is about 2-fold lower than that of the molecule before.

Consider `COc1ccc2c(c1)sc1nc(-c3ccc(N[11CH3])cc3)cn12`, for which the Ki in test [1] was determined as 6.09 nM.

Consider `Nc1ccc(-c2cn3c(n2)sc2cc(F)ccc23)cc1`, for which, in test [1], the Ki turned out to be 133 nM. Against the preceding molecule, the Ki is about 22-fold higher.

`CNc1ccc(-c2cn3c(n2)sc2cc(F)ccc23)cc1` returned a Ki in test [1] of 38.1 nM.

`CN(C)c1ccc(-c2cn3c(n2)sc2cc(F)ccc23)cc1`: in test [1], the Ki was found to be 42.9 nM. This Ki and that of the molecule before are within 1.5-fold of each other.

`Nc1ccc(-c2cn3c(n2)sc2cc(Br)ccc23)cc1` registered an inhibition constant (Ki) in test [1] of 28.8 nM.

`CNc1ccc(-c2cn3c(n2)sc2cc(Br)ccc23)cc1` gave a Ki in test [1] of 34.5 nM.

Molecule `CN(C)c1ccc(-c2cn3c(n2)sc2cc(Br)ccc23)cc1` registered a Ki in test [1] of 43.4 nM.

With `COc1ccc2c(c1)sc1nc(-c3ccc([123I])cc3)cn12`, the Ki in test [1] was found to be 10.9 nM.

Turning to `Fc1ccc2c(c1)sc1nc(-c3ccc(I)cc3)cn12`, the affinity in test [1] corresponds to a Ki of 41.9 nM.

For the molecule `Brc1ccc2c(c1)sc1nc(-c3ccc(I)cc3)cn12`, in test [1], the affinity, expressed as Ki, was 21.1 nM.

For `Cc1ccc2c(c1)sc1nc(-c3ccc(I)cc3)cn12`, in test [1], the affinity corresponds to a Ki of 17.7 nM. The Ki values of the last two molecules are within 1.5-fold of each other.

As for `COc1ccc2c(c1)sc1nc(-c3ccc(Br)cc3)cn12`, the affinity in test [1], expressed as Ki, was 9.4 nM.

For the molecule `Cc1ccc2c(c1)sc1nc(-c3ccc(Br)cc3)cn12`, in test [1], the affinity, expressed as Ki, was 26 nM.

For orientation: Kd means the concentration at which binding is half-saturated. Higher therefore signals weaker binding. Take `CN(C)c1ccc(-c2cn3cc([123I])ccc3n2)cc1`: in test [1], affinity was put at a Ki of […]. This molecule came in with a dissociation constant (Kd) in test [2] of 10 nM.

In turn, `CN(C)c1ccc(-c2cn3cc(I)ccc3n2)cc1` yielded a Ki in test [1] of […].

In test [1], `CNc1ccc(-c2nc3ccc(O)cc3s2)cc1` [PITTSBURGH COMPOUND B UNLABELLED] displayed a Ki of 4.5 nM.

As to `[11CH3]Nc1ccc(-c2nc3ccc(O)cc3s2)cc1` [PITTSBURGH COMPOUND B], in test [1], the Ki is 11 nM. For the same molecule, the Kd in test [2] is 10 nM.
